We go through 86 compounds from a melting point compilation (Tetko et al.; mined from patent text by program, amines drawn as free bases though some values may be those of a salt).

What is called melting point is the temperature, or range, at which the solid turns liquid.

Compound `Cc1ccccc1CNC(=O)[C@@H]1CSCN1C(=O)[C@@H](O)[C@H](Cc1ccccc1)NC(=O)C(C)C(C)C(=O)OC[C@H]1O[C@@H](n2cc(C)c(=O)[nH]c2=O)CC1N=[N+]=[N-]` (stereo partly specified) displayed a melting point of 114 to 115 °C.
The value for `c1ccc2c(c1)CCc1ccccc1C2CNc1ccncc1` was 145 to 146 °C.
In the case of `O=C(Cc1ccc(F)cc1)c1c(O)c2cccnc2n(-c2cccc(OC(F)(F)F)c2)c1=O` it was 137 to 138 °C; in that of `O=C(c1ccccc1OCCCCl)c1cccc2[nH]ccc12`, 94 °C.
For `CCC=CC(c1cc(F)ccc1F)S(=O)(=O)c1ccc(Cl)cc1` (stereo unspecified), the melting point fell in the range of 99 to 100 °C.
In the case of `O=C(NC1CCCCC1)c1ccc(-c2ccc3nnn(Cc4ccc5ncccc5c4)c3n2)cc1F` it was 172 to 175 °C; in that of `Nc1ccccc1-c1nc2ccccc2o1`, 104 to 107 °C; in that of `O=[N+]([O-])c1cccc(Sc2ccc(-c3ccc(Br)cc3)s2)c1`, 120 to 122 °C.
In the case of `O=CC1=CC(c2ccccc2)(c2ccccc2)CCC1=O` it was 126 °C; in that of `CC(C)(C)NC(=O)c1ccc(Cl)cc1`, 136 to 137 °C; in that of `COCCOc1cc2ncc(C#N)c(NC3=CC(=O)C(C)=CC3=O)c2cc1OC`, 174 to 177 °C.
The value for `O=C1CCC=C2N=CC=NC=C12` was 141 to 146 °C.
Compound `O=C(O)C1CC2CC(CP(=O)(O)O)CCC2CN1` (stereo unspecified) had a melting point of 208 to 211 °C.
The value for `CC(C=Cc1ccccc1-c1cc2c(cc1C)C(C)(C)CCC2(C)C)=CC(=O)O` was 181 to 182 °C.
The value for `Cc1nnc(-c2ccc3occ(-c4ccncc4Cl)c3c2)o1` was 147 to 148 °C.
In turn, `COc1cccc2c1C(=O)c1c(cc3c(c1O)CCC(C(C)=O)C3)C2=O` (stereo unspecified) came in with a melting point of 222 to 225 °C.
Take `COc1cc(C)nc(NC(=O)NS(=O)(=O)c2ccccc2OC(F)(F)F)n1`: the melting point was determined as 162 °C.
The value for `CCCCCCCCC(=O)Nc1ccn(C2OC(CO)C(O)C2O)c(=O)n1` (stereo unspecified) was 150 to 152 °C; that for `CC(C)(NC=O)c1ccc(I)cc1` was 121 to 125 °C; that for `NC(=O)c1[nH]c2ccc(Cl)cc2c1S(=O)(=O)c1ccccn1` was 244 to 246 °C.
In the case of `N#Cc1ccc(Cn2c(=O)[nH]c3cc(Cl)cc(Cl)c3c2=O)cc1` it was 317 to 320 °C; in that of `CC(C)(C)OC(=O)N1CCC(O)(CS(=O)(=O)NC(c2ccccc2)c2ccccc2)CC1`, 121 to 123 °C.
The value for `C#CCn1cccc1-c1nc(-c2ccc(OC)cc2)c(-c2ccc(OC)cc2)s1` was 102 to 104 °C; that for `COCc1cn(-c2cccc(C(F)(F)F)c2)nc(C(=O)OC)c1=O` was 138 to 140 °C.
As to `Cc1cc(C)nc(N(C(=O)n2cncn2)c2ccccc2)n1`, the melting point was 157 °C.
In the case of `O=C(Cc1cc(F)ccc1F)N1CCNc2ncc(I)cc21` it was 152 to 153 °C; in that of `COc1ccc(C(=Cc2ccncc2)c2ccncc2)cc1OC1CCCC1`, 136 to 138 °C; in that of `Cc1cc(C)cc(Oc2ccc(-n3ccnc3)nn2)c1`, 170 °C.
In the case of `Cc1ccc(-c2[nH]c3ccccc3c(=O)c2Cc2ccncc2)cc1` it was 264 to 266 °C; in that of `COc1ccc(-c2[nH]nc3c2C(=O)c2c(NC(=O)CCNc4ccncc4)cccc2-3)cc1`, more than 300 °C; in that of `O=C1CC(O)CN1S(=O)(=O)c1ccc(N2CCCCCC2)cc1` (stereo unspecified), 170 to 172 °C.
The value for `O=C(O)Cc1csc(-c2ccccc2O)n1` was 173 to 174 °C.
Compound `Cn1c(COc2ccc(CC3SC(=O)NC3=O)cc2)cc2ccccc21` (stereo unspecified) registered a melting point of 174 to 176 °C.
The value for `Oc1ccc(Nc2nc(NCc3ccco3)nc(Oc3ccc(O)cc3)n2)cc1` was 80 to 83 °C.
In the case of `COc1cc(N)ccc1C=NNC(=N)NN=Cc1ccc(N)cc1OC` it was 220 to 230 °C; in that of `CCCCNC(=O)Nc1ccc(SCC)cc1C(=O)NCC1CCN(C(c2ccccc2)c2ccccc2)CC1`, 159 to 160 °C.
The compound `COc1ccccc1N1CCN(CC=CCN)CC1` yielded a melting point of 63 to 67 °C.
In the case of `COc1ccc([C@@H]2OC(=O)[C@H](C)N2C(=O)OCc2ccccc2)cc1` it was 97 to 99 °C.
The value for `CN(C)c1cc(C(=O)CS(C)(=O)=O)cc(N(C)C)c1` was 151 to 153 °C; that for `Cc1nc2cnccc2n1-c1ccc(Cn2c(=O)oc3ccccc32)cc1` was 84 to 87 °C; that for `CCOC(=O)CNC(=O)c1nnc2ccc(Cl)nn12` was 133 to 134 °C.
In the case of `COc1ccc(C2c3ccccc3C(c3ccc(OC)cc3)C2C(=O)O)cc1` (stereo unspecified) it was 192 to 193 °C; in that of `Nc1ccccc1Nc1ccc(C(c2ccc(Nc3ccccc3N)cc2)(C(F)(F)F)C(F)(F)F)cc1`, 150 to 152 °C; in that of `N#CN=CNc1nc(OCc2ccc(F)cc2)ncc1F`, 148 to 149 °C.
Compound `CC1=C(C(=O)OC(C)C)C(c2cccc([N+](=O)[O-])c2)c2c(nc(N3CCOCC3)nc2N2CCOCC2)N1` (stereo unspecified) showed a melting point of 229 °C.
In the case of `CCCCCCCCNC(=O)c1cc(C(C)(C)C)c(O)c(C(C)(C)C)c1` it was 133 to 135 °C; in that of `Cn1cc(-c2ccc(C(=O)O)cn2)cn1`, 262 to 264 °C; in that of `CC12CCC(=O)C=C1CCN(C(=O)OCc1ccccc1)C2` (stereo unspecified), 128 °C.
The value for `ON=C1CCCc2cc(OCCn3ccnc3)ccc21` was 177 to 179 °C.
The value for `COC(=O)CCSCCOC1OC(COC(C)=O)C(OC(C)=O)C(OC(C)=O)C1OC(C)=O` (stereo unspecified) was 81 to 82 °C.
`CC(=O)N1CCCc2cc(CO)ccc21` came in with a melting point of 95 to 106 °C.
In turn, `O=c1[nH]c2ccc(Br)cc2n1Cc1ccccc1` showed a melting point of 245 to 246 °C.
Compound `OC(c1c(Br)ccc2c1OCO2)c1cccc2cnccc12` (stereo unspecified) showed a melting point of 173 to 175 °C.
Regarding `CC(=O)c1ccc(C(=O)N(C)C)o1`, the melting point lay within 101 to 104 °C.
The value for `Cc1cc(Cl)cc(C(=O)NC(C)C2CC2)c1NC(=O)c1cc(Br)nn1-c1ccccc1Cl` (stereo unspecified) was 180 to 181 °C.
The value for `COc1ccc([N+](=O)[O-])c2c1OCC(C(=O)Nc1ccc(N3CCOCC3)cc1)C2` (stereo unspecified) was 238 to 240 °C.
In turn, `CC(=O)Nc1ccc2cccc(N3CCN(C)CC3)c2c1` returned a melting point of 173 to 177 °C.
In the case of `N#CCCSC1C2=C(CCCC2)C(=O)N1c1ccc(Cl)cc1F` (stereo unspecified) it was 101 to 103 °C; in that of `Oc1c2c(nn1-c1nc3ccccc3s1)CCc1ccccc1-2`, 234 to 235 °C; in that of `Clc1cc(CCc2ccccn2)c2oc(-c3cccc4cccnc34)nc2c1`, 110 to 111 °C.
The value for `CON=C(C(=O)O)c1csnn1` was 110 to 113 °C; that for `NS(=O)(=O)c1ccc(-c2noc(-c3cnn4c(C5CC5)cc(-c5ccc(C(F)(F)F)cc5)nc34)n2)cc1` was 313 °C; that for `NC(=O)Cc1ccc(OCC(O)CN2CCCC(Cn3c(=O)[nH]c4cc(Cl)c(Cl)cc43)C2)cc1` (stereo unspecified) was 148 °C.
The value for `COC(=O)c1nc2c(NC(=O)C(C)(C)C)cccn2c1C` was 132 °C; that for `O=c1c2cnc(Cl)cc2[nH]c2ccnn12` was more than 300 °C; that for `CC(C)(C)OC(=O)N1CCCN(c2cc[nH]c(=S)c2C#N)CC1` was 203 to 205 °C.
Consider `O=[N+]([O-])c1ccc(F)cc1CCN1CCN(c2nsc3ccccc23)CC1`, for which the melting point worked out at 131 °C.
Take `O=C(O)C(O)c1csc2ccccc12` (stereo unspecified): the melting point was 89 to 91 °C.
In turn, `CCCCN(CCCC)c1ccc2nc3c4ccccc4c(=Nc4ccncc4)cc-3oc2c1` gave a melting point of 188 to 189 °C.
In the case of `Cc1c(F)c(N2CCC(n3cncn3)C2)c(F)c2c1c(=O)c(C(=O)O)cn2C1CC1` (stereo unspecified) it was 207 to 210 °C; in that of `CCc1cc2c(s1)-n1c(C3CCCCC3)nnc1C(NC(=O)Nc1ccc(OC)cc1)N=C2c1ccccc1Cl` (stereo unspecified), 268 to 269 °C.
In the case of `O=C(Nc1ccc(Cl)cc1)C1=C(O)CS(=O)(=O)N(Cc2ccc(Cl)cc2)c2ccccc21` it was 182 to 183 °C; in that of `CC1(C)CC(O)C(C)(C)c2cc(CC=Cc3ccccc3C#N)ccc21` (stereo unspecified), 163 to 165 °C; in that of `CN1CCN(C(=O)CN2CCN(C(=O)c3cc(C(F)(F)F)cc(C(F)(F)F)c3)[C@H](Cc3c[nH]c4ccccc34)C2)CC1`, 105 to 108 °C.
The value for `CN1c2ccc(C=C(c3ccccc3)c3ccccc3)cc2Sc2cc(C=C(c3ccccc3)c3ccccc3)ccc21` was 233 to 241 °C.
As to `CC1(CN2CCN(Cc3ccc(C(F)(F)F)cc3)C(=O)C2)Cn2cc([N+](=O)[O-])nc2O1` (stereo unspecified), the melting point lay in the range of 88 to 93 °C.
The value for `COc1cc(Nc2c(C#N)cnc3c2sc2ccccc23)c(Cl)cc1Cl` was 234 to 236 °C; that for `CCN(C(=O)C1CC1)c1cccc(-c2ccc3nnc(C)n3n2)c1` was 149 to 151 °C; that for `CC=CCONC(C)=C1C(=O)CC(CCSc2ccc(C(F)(F)F)cc2)CC1=O` (stereo unspecified) was 72 to 73 °C.
In the case of `CON=CC1=CCCN(C(=O)Oc2ccc(C(C)(C)CC(C)(C)C)cc2)C1` it was 91 to 93 °C; in that of `O=C(Nc1cccnn1)N1CCN(c2nccc(-c3cccc(F)c3)n2)CC1`, 238 to 239 °C; in that of `CCc1c(-c2ccc(OCc3ccccc3)cc2)c2cc(C(=O)OC)c3cccc1n32`, 129 to 131 °C.
For the compound `CC(C)(C)OC(=O)NCc1ccc(-n2c(-c3cccnc3N)nc3cc(Br)cnc32)cc1`, the melting point fell in the range of 129 to 131 °C.
The value for `CS(=O)(=O)c1ccc(-c2oc(CO)cc(=O)c2Oc2ccc(F)cc2)cc1` was 206 °C.
In the case of `CCCCCC(CC(=O)Nc1cc(C(=O)O)ccc1C(C)(C)C)c1ccc(CCCC)cc1OC` (stereo unspecified) it was 136 to 138 °C; in that of `COc1ccc(N2CCN(c3c(C)c(C)c4c(c3C)C(c3ccsc3)C(C)(C)O4)CC2)cc1` (stereo unspecified), 128 to 131 °C.
